31 compounds from patent publication US10239869B2, “Sulfonamide compounds as voltage-gated sodium channel modulators” (LUPIN LIMITED, priority 2015, dated 2019) can be followed below.

By IC50 is commonly meant the concentration that gives 50% inhibition.

In the first series the target is Nav 1.5 (Homo sapiens (Human), UniProt Q14524). Description: Inhibition of sodium channels, Red Membrane Potential Dye FLIPR assay, veratridine depolarization. The note with it: HEK-293 cells overexpressing the channel; 10 μM. The class given is cell-based.
Chain of Nav 1.5 (Q14524 whole entry): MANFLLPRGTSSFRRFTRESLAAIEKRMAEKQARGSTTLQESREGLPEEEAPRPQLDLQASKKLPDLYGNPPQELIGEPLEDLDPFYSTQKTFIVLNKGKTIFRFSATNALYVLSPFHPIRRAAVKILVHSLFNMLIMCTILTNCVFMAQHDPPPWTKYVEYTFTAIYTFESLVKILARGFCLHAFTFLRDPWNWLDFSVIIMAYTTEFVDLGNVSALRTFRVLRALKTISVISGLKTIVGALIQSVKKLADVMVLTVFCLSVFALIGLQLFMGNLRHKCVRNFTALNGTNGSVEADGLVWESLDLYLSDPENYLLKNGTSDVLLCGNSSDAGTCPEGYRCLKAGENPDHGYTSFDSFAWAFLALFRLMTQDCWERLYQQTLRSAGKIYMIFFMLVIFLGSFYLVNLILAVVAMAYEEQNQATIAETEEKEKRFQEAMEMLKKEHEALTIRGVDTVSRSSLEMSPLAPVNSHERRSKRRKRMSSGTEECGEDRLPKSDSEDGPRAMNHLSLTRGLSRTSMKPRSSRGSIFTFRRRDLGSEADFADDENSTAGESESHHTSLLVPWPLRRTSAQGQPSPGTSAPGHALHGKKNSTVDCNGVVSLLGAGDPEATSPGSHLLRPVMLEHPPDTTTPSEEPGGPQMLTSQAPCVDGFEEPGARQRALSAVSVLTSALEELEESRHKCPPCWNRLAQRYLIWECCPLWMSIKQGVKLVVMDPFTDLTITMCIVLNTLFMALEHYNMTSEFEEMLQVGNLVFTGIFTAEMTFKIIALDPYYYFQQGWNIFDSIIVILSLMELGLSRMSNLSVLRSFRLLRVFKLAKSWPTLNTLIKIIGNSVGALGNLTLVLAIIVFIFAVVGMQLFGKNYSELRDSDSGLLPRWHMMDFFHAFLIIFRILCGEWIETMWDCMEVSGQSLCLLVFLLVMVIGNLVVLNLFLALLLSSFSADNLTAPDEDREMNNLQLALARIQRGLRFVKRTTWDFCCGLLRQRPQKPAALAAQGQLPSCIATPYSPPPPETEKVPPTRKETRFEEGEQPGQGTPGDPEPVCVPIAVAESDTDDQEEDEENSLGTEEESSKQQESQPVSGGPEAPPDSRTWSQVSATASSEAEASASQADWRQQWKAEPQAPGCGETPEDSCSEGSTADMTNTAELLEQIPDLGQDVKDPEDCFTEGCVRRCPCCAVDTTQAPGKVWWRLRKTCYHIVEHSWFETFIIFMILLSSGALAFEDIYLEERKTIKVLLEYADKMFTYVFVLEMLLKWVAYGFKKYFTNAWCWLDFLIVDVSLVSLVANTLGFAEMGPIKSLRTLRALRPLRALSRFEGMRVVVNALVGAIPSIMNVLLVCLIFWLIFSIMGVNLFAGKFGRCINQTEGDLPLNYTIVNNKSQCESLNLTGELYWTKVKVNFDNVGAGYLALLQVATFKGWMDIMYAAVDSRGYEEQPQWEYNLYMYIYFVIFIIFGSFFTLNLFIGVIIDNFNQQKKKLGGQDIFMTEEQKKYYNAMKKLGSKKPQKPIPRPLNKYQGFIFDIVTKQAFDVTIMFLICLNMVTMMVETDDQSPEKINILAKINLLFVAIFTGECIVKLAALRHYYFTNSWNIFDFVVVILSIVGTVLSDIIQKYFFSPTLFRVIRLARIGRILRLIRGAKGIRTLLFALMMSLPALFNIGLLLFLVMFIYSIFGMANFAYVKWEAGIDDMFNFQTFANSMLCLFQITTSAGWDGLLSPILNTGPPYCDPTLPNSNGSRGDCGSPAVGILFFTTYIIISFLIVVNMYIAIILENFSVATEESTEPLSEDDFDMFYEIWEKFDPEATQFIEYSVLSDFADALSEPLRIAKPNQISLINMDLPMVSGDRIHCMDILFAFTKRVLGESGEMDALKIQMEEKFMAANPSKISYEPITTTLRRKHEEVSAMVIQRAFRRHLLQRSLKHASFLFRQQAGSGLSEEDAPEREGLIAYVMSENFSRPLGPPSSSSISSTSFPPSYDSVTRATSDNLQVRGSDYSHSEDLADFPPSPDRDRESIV
As for `O=S(=O)(Nc1cccc(F)n1)c1ccc2c(c1)OCC[C@@H]2c1ccc(C(F)(F)F)cc1-c1ccc(F)cc1` [Example 50, (S&R)-4-(4′-Fluoro-5-(trifluoromethyl)-[, 1′-biphenyl]-2-yl)-N-(6-fluoropyridin-2-yl) chromane-7-sulfonamide], the “Nav1.5 % inhibition @ 10 μM” value stood at 38%.

`O=S(=O)(Nc1ncccn1)c1ccc2c(c1)OCC[C@@H]2c1ccc(C(F)(F)F)cc1-c1ccc(F)cn1` [Example-194, (S&R)-4-(2-(5-fluoropyridin-2-yl)-4-(trifluoromethyl)phenyl)-N-(pyrimidin-2-yl)chroman-7-sulfonamide]: the “Nav1.5 % inhibition @ 10 μM” value is 65%.

Turning to `Cn1nccc1-c1cc(C(F)(F)F)ccc1[C@H]1CCOc2cc(S(=O)(=O)Nc3cc(F)ccn3)ccc21` [Example 4, (S&R)—N-(4-Fluoropyridin-2-yl)-4-(2-(1-methyl-1H-pyrazol-5-yl)-4-(trifluoromethyl)phenyl)chroman-7-sulfonamide], the “Nav1.5 % inhibition @ 10 μM” value was found to be 57%.

`O=S(=O)(Nc1ncccn1)c1ccc2c(c1)OCC[C@@H]2c1ccc(C(F)(F)F)cc1N1CCOCC1` [Example 119, (S&R)-4-(2-morpholino-4-(trifluoromethyl)phenyl)-N-(pyrimidin-2-yl)chroman-7-sulfonamide]: the “Nav1.5 % inhibition @ 10 μM” value is on record as 30%.

Turning to `Cn1nccc1-c1cc(C(F)(F)F)ccc1[C@@H]1CCOc2cc(S(=O)(=O)Nc3ccc(F)cn3)ccc21` [Example 5, (S&R)—N-(5-Fluoropyridin-2-yl)-4-(2-(1-methyl-1H-pyrazol-5-yl)-4-(trifluoromethyl)phenyl)chroman-7-sulfonamide], the “Nav1.5 % inhibition @ 10 μM” value was found to be 58%.

Still in this series, the particulars now being: HEK-293 cells overexpressing the channel; read-out: Nav1.5 IC50 (bound given in μM).
For the compound `Cn1nccc1-c1cc(C(F)(F)F)ccc1[C@H]1CCOc2cc(S(=O)(=O)Nc3cnccn3)ccc21` [Example 12, (S&R)-4-(2-(1-Methyl-1H-pyrazol-5-yl)-4-(trifluoromethyl)phenyl)-N-(pyrazin-2-yl) chromane-7-sulfonamide], the IC50 was more than 10 µM.

As to `Cc1ccc(-c2cc(C(F)(F)F)ccc2[C@@H]2CCOc3cc(S(=O)(=O)Nc4ncccn4)ccc32)cn1` [Example-201, (S)-4-(2-(6-methylpyridin-3-yl)-4-(trifluoromethyl)phenyl)-N-(pyrimidin-2-yl)chromane-7-sulfonamide], the IC50 was more than 10 µM.

Take `O=S(=O)(Nc1ncccn1)c1ccc2c(c1)OCC[C@H]2c1ccc(C(F)(F)F)cc1-c1ccc(F)cn1` [Example-193, (S&R)-4-(2-(5-fluoropyridin-2-yl)-4-(trifluoromethyl)phenyl)-N-(pyrimidin-2-yl)chroman-7-sulfonamide]: the 50% inhibitory concentration (IC50) was more than 10 µM.

Take `O=S(=O)(Nc1ncccn1)c1ccc2c(c1)OCC[C@H]2c1ccc(C(F)(F)F)cc1N1CCOCC1` [Example 118, (S&R)-4-(2-morpholino-4-(trifluoromethyl)phenyl)-N-(pyrimidin-2-yl)chroman-7-sulfonamide]: the IC50 was more than 10 µM.

Consider `O=S(=O)(Nc1ncc(F)cn1)c1ccc2c(c1)OCC[C@@H]2c1ccc(C(F)(F)F)cc1-n1ccnn1` [Example 56, (S&R)-4-(2-(1H-1,2,3-Triazol-1-yl)-4-(trifluoromethyl)phenyl)-N-(5-fluoropyrimidin-2-yl) chromane-7-sulfonamide], for which the IC50 is more than 10 µM.

In the case of `O=S(=O)(Nc1ccncn1)c1ccc2c(c1)OCC[C@H]2c1ccc(C(F)(F)F)cc1-n1ccnn1` [Example 57, (S&R)-4-(2-(1H-1,2,3-Triazol-1-yl)-4-(trifluoromethyl)phenyl)-N-(pyrimidin-4-yl)chromane-7-sulfonamide], the IC50 was more than 10 µM.

Take `O=S1(=O)CCN(c2cc(C(F)(F)F)ccc2[C@H]2CCOc3cc(S(=O)(=O)Nc4cccc(F)n4)ccc32)CC1` (racemic) [Example-235, (R/S)-4-(2-(1,1-dioxidothiomorpholino)-4-(trifluoromethyl)phenyl)-N-(6-fluoropyridin-2-yl)chroman-7-sulfonamide]: the IC50 was more than 10 µM.

For the compound `O=S(=O)(Nc1cccc(F)n1)c1ccc2c(c1)OCC[C@@H]2c1ccc(C(F)(F)F)cc1-n1ccnn1` [Example 60, (S&R)-4-(2-(1H-1,2,3-Triazol-1-yl)-4-(trifluoromethyl)phenyl)-N-(6-fluoropyridin-2-yl) chromane-7-sulfonamide], the IC50 is more than 10 µM.

Turning to `O=S(=O)(Nc1ncc(F)cn1)c1ccc2c(c1)OCC[C@H]2c1ccc(C(F)(F)F)cc1-c1ccc(F)nc1` [Example 37, (S&R)-4-(2-(6-Fluoropyridin-3-yl)-4-(trifluoromethyl)phenyl)-N-(5-fluoropyrimidin-2-yl) chromane-7-sulfonamide], the IC50 was more than 10 µM.

In the case of `O=S(=O)(Nc1ncc(F)cn1)c1ccc2c(c1)OCC[C@@H]2c1ccc(C(F)(F)F)cc1-c1ccc(F)cc1` [Example 46, (S&R)-4-(4′-Fluoro-5-(trifluoromethyl)-[1,1′-biphenyl]-2-yl)-N-(5-fluoropyrimidin-2-yl) chromane-7-sulfonamide], the IC50 was more than 10 µM.

For the compound `O=S(=O)(Nc1cccc(F)n1)c1ccc2c(c1)OCC[C@H]2c1ccc(C(F)(F)F)cc1-n1ccnn1` [Example 59, (S&R)-4-(2-(1H-1,2,3-Triazol-1-yl)-4-(trifluoromethyl)phenyl)-N-(6-fluoropyridin-2-yl) chromane-7-sulfonamide], the half-maximal inhibitory concentration (IC50) is more than 10 µM.

Regarding `O=S1(=O)CCN(c2cc(C(F)(F)F)ccc2[C@H]2CCOc3cc(S(=O)(=O)Nc4ccncn4)ccc32)CC1` (racemic) [Example-237, (R/S)-4-(2-(1,1-dioxidothiomorpholino)-4-(trifluoromethyl)phenyl)-N-(pyrimidin-4-yl)chromane-7-sulfonamide], the IC50 is more than 10 µM.

On to `O=S(=O)(Nc1ncc(F)cn1)c1ccc2c(c1)OCC[C@H]2c1ccc(C(F)(F)F)cc1-n1ccnn1` [Example 55, (S&R)-4-(2-(1H-1,2,3-Triazol-1-yl)-4-(trifluoromethyl)phenyl)-N-(5-fluoropyrimidin-2-yl) chromane-7-sulfonamide], for which the IC50 is more than 10 µM.

On to `Cn1nccc1-c1cc(C(F)(F)F)ccc1[C@@H]1CCOc2cc(S(=O)(=O)Nc3cc(F)ccn3)ccc21` [Example 3, (S&R)—N-(4-Fluoropyridin-2-yl)-4-(2-(1-methyl-1H-pyrazol-5-yl)-4-(trifluoromethyl)phenyl)chroman-7-sulfonamide], for which the IC50 was more than 10 µM.

Turning to `O=S(=O)(Nc1ncccn1)c1ccc2c(c1)OCC[C@@H]2c1ccc(C(F)(F)F)cc1-n1ccnn1` [Example 52, (S&R)-4-(2-(1H-1,2,3-Triazol-1-yl)-4-(trifluoromethyl)phenyl)-N-(pyrimidin-2-yl)chromane-7-sulfonamide], the IC50 is more than 10 µM.

As to `O=S(=O)(Nc1ncc(F)cn1)c1ccc2c(c1)OCC[C@H]2c1ccc(C(F)(F)F)cc1-c1ccc(F)cc1` [Example 45, (S&R)-4-(4′-Fluoro-5-(trifluoromethyl)-[1,1′-biphenyl]-2-yl)-N-(5-fluoropyrimidin-2-yl) chromane-7-sulfonamide], the IC50 is more than 10 µM.

As to `Cn1nccc1-c1cc(C(F)(F)F)ccc1[C@@H]1CCOc2cc(S(=O)(=O)Nc3ccncn3)ccc21` [Example 9, (S&R)-4-(2-(1-Methyl-1H-pyrazol-5-yl)-4-(trifluoromethyl)phenyl)-N-(pyrimidin-4-yl) chroman-7-sulfonamide], the 50% inhibitory concentration (IC50) was more than 10 µM.

In the case of `Cn1nccc1-c1cc(C(F)(F)F)ccc1[C@H]1CCOc2cc(S(=O)(=O)Nc3ccncn3)ccc21` [Example 10, (S&R)-4-(2-(1-Methyl-1H-pyrazol-5-yl)-4-(trifluoromethyl)phenyl)-N-(pyrimidin-4-yl) chroman-7-sulfonamide], the IC50 is more than 10 µM.

On to `Cc1ccc(-c2cc(C(F)(F)F)ccc2[C@H]2CCOc3cc(S(=O)(=O)Nc4ncccn4)ccc32)cn1` [Example-202, (R)-4-(2-(6-methylpyridin-3-yl)-4-(trifluoromethyl)phenyl)-N-(pyrimidin-2-yl)chroman-7-sulfonamide], for which the IC50 was more than 10 µM.

Consider `O=S(=O)(Nc1cccc(F)n1)c1ccc2c(c1)OCC[C@H]2c1ccc(C(F)(F)F)cc1-c1ccc(F)cc1` [Example 49, (S&R)-4-(4′-Fluoro-5-(trifluoromethyl)-[, 1′-biphenyl]-2-yl)-N-(6-fluoropyridin-2-yl) chromane-7-sulfonamide], for which the half-inhibitory concentration (IC50) was more than 10 µM.

In the case of `O=S(=O)(Nc1ccncn1)c1ccc2c(c1)OCC[C@@H]2c1ccc(C(F)(F)F)cc1-n1ccnn1` [Example 58, (S&R)-4-(2-(1H-1,2,3-Triazol-1-yl)-4-(trifluoromethyl)phenyl)-N-(pyrimidin-4-yl)chromane-7-sulfonamide], the IC50 is more than 10 µM.

Take `O=S(=O)(Nc1ncccn1)c1ccc2c(c1)OCC[C@H]2c1ccc(C(F)(F)F)cc1-n1ccnn1` [Example 51, (S&R)-4-(2-(1H-1,2,3-Triazol-1-yl)-4-(trifluoromethyl)phenyl)-N-(pyrimidin-2-yl)chromane-7-sulfonamide]: the IC50 is more than 10 µM.

In the case of `O=S1(=O)CCN(c2cc(C(F)(F)F)ccc2[C@H]2CCOc3cc(S(=O)(=O)Nc4ncc(F)cn4)ccc32)CC1` (racemic) [Example-234, (R/S)-4-(2-(1,1-dioxidothiomorpholino)-4-(trifluoromethyl)phenyl)-N-(5-fluoropyrimidin-2-yl)chroman-7-sulfonamide], the IC50 is more than 10 µM.

As for `O=S1(=O)CCN(c2cc(C(F)(F)F)ccc2[C@H]2CCOc3cc(S(=O)(=O)Nc4ncccn4)ccc32)CC1` [Example-233, (S&R)-4-(2-(1,1-dioxidothiomorpholino)-4-(trifluoromethyl)phenyl)-N-(pyrimidin-2-yl)chroman-7-sulfonamide], the concentration for half-maximal inhibition (IC50) is more than 10 µM.

For the compound `O=S(=O)(Nc1ccncn1)c1ccc2c(c1)OCC[C@@H]2c1ccc(C(F)(F)F)cc1-c1ccc(F)cc1` [Example 48, (S&R)-4-(4′-Fluoro-5-(trifluoromethyl)-[1,1′-biphenyl]-2-yl)-N-(pyrimidin-4-yl)chromane-7-sulfonamide], the half-inhibitory concentration (IC50) was more than 10 µM.

In the case of `O=S(=O)(Nc1ncc(F)cn1)c1ccc2c(c1)OCC[C@@H]2c1ccc(C(F)(F)F)cc1-c1ccc(F)nc1` [Example 38, (S&R)-4-(2-(6-Fluoropyridin-3-yl)-4-(trifluoromethyl)phenyl)-N-(5-fluoropyrimidin-2-yl) chromane-7-sulfonamide], the IC50 was more than 10 µM.
